Key:
MET = MET biochemical kinase assay; set-up: species or system human; concentration or dose not given beside the values
Outline: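 In this format, tyrosine phosphorylation of plate-captured human MET is followed in vitro after compound addition in ATP/divalent-cation buffer, detected by anti-phosphotyrosine-HRP with TMB substrate.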

EGFR = target: T1, EGFR (Homo sapiens, UniProt P00533); assay: EGFR ELISA assay (in vitro kinase activity, EGFR captured from A431 cell lysate); assay type: biochemical; set-up: concentration or dose not given beside the values
T1 construct: Add 7 ug A431 cell lysate per well (EGFR source); endogenous in cells; host or cells: A431
T1 sequence (P00533 25-1210): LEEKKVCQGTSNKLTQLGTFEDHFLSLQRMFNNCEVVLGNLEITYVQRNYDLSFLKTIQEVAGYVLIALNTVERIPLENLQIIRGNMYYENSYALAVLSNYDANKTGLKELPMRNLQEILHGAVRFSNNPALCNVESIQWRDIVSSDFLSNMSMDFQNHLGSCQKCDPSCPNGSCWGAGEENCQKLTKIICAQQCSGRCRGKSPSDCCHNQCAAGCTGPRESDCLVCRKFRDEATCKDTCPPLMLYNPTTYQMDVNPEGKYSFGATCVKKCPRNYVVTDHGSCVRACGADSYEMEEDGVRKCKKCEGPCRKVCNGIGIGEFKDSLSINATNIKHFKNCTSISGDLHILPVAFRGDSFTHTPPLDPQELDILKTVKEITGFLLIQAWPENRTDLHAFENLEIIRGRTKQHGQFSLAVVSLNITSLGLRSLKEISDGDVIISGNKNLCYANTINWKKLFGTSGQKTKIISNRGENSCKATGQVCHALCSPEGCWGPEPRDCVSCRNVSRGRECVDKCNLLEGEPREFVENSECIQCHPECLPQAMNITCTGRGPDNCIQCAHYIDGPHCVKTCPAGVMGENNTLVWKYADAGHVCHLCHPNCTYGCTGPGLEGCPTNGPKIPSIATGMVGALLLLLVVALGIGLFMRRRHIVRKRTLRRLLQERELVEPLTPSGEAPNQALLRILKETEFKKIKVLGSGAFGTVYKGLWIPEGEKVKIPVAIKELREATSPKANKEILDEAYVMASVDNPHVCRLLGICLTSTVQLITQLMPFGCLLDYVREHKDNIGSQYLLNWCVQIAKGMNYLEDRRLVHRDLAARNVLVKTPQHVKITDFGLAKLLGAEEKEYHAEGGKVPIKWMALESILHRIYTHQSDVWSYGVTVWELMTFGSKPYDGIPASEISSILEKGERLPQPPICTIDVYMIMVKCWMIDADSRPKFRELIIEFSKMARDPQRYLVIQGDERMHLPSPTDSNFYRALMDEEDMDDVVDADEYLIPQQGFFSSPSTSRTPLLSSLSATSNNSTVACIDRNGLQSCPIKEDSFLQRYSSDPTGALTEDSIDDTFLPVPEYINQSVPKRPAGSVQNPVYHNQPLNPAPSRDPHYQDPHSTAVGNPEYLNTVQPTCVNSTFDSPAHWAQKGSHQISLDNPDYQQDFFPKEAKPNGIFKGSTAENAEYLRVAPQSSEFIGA
Outline: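 EGFR from A431 lysate was captured on plates coated with anti-EGFR antibody. Compounds were added 30 min before a 5 min phosphorylation with 3 µM ATP/5 mM MnCl2, which was stopped with 20 mM EDTA. Phosphotyrosine was detected with rabbit anti-phosphotyrosine, then a peroxidase-conjugated secondary and ABTS/H2O2, read at 410 nm.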

PDGF-R = PDGF-R (Homo sapiens, UniProt P09619); assay: PDGF-R ELISA; assay type: cell-based
PDGF-R, sequence (P09619 33-1106, species assumed): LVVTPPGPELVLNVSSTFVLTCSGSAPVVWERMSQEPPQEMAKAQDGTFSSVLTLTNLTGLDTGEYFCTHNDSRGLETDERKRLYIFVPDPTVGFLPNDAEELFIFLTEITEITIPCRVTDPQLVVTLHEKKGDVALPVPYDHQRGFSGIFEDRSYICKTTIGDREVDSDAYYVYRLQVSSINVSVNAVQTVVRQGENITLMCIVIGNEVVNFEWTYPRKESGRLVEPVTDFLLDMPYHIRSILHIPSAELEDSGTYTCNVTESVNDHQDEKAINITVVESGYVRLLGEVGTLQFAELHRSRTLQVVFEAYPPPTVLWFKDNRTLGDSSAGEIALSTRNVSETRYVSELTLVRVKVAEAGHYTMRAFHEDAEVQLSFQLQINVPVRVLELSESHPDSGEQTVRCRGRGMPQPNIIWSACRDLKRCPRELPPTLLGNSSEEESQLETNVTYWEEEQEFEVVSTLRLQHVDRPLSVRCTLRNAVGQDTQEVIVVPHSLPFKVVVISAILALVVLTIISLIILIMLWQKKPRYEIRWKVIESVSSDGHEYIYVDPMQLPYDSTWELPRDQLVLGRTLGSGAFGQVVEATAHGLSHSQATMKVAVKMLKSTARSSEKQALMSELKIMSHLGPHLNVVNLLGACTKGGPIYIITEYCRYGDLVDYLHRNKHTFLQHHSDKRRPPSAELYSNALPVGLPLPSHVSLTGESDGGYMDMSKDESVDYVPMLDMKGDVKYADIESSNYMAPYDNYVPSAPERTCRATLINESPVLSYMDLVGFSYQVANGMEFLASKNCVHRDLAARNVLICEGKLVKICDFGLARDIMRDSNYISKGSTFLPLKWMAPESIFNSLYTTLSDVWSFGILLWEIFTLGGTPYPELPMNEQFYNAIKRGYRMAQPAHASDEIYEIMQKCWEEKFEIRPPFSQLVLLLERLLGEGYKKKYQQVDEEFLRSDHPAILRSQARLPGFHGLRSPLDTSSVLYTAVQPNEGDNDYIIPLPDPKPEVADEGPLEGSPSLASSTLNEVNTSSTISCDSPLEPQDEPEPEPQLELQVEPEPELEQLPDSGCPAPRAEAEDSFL
Source text: A PDGF-R ELISA is described in International Patent Publication No. WO 96/40116, published December 19, 1996 by Tang et al.

Structure (SMILES) | Met Kinase % Inhibition (MET) [%] | Biochem EGFR %Inhibition (EGFR) [%] | PDGF Kinase %Inhibition (PDGF-R) [%]
COC1CC(C=C2C(=O)Nc3ccc(I)cc32)C(OC)O1 (stereo not drawn) [10730/B10] | 69.5 | 15.8 | 19.0
CNS(=O)(=O)c1ccc2c(c1)C(=Cc1ccc(OC)c(OC)c1OC)C(=O)N2 [10730/D02] | 34.7 | 18.6 | 24.3
COc1cc(OC)c(OC)cc1C=C1C(=O)Nc2ccc(Br)c(C)c21 [10730/C03] | 43.2 | -12.1 | 36.5
O=C1Nc2ccc(S(=O)(=O)N3CCOCC3)cc2C1=Cc1coc2ccc(Cl)cc2c1=O [10730/F06] | 56.5 | -0.6 | 3.2
COc1cc(C=C2C(=O)Nc3c(Br)cc(Br)cc32)cc(OC)c1OC [10730/A04] | 70.6 | 37.2 | -5.1
CNS(=O)(=O)c1ccc2c(c1)C(=CC1CC(OC)OC1OC)C(=O)N2 (stereo not drawn) [10730/D10] | 18.5 | 16.7 | -3.3
O=C1Nc2ccc(S(=O)(=O)Nc3ccc(C(F)(F)F)cc3)cc2C1=Cc1cc2ccccc2nc1Cl [10730/E08] | 40.3 | 6.2 | 48.4
O=C1Nc2ccc(CCCl)cc2C1=Cc1cccc(Oc2ccccc2)c1 [10729/G06] | 26.0 | 15.2 | 11.8
O=C1Nc2c(Br)cc(Br)cc2C1=Cc1coc2c(Br)cc(Br)cc2c1=O [10730/A09] | 69.5 | 1.1 | -4.7
COc1ccc(C=C2C(=O)Nc3ccc(S(=O)(=O)N4CCOCC4)cc32)c(OC)c1OC [10730/F02] | -6.2 | 2.9 | 20.3
O=C1Nc2ccc(CCCl)cc2C1=Cc1ccccn1 [10729/G07] | 38.2 | -0.8 | 14.4
COc1ccc(C=C2C(=O)Nc3ccc(CCCl)cc32)c2ccccc12 [10729/G03] | 20.1 | 14.6 | 13.7
O=C1Nc2ccc(CCCl)cc2C1=CC1C=CCCC1 (stereo not drawn) [10729/G11] | 15.4 | 23.4 | 3.8
CNS(=O)(=O)c1ccc2c(c1)C(=Cc1cc(C)c(C)o1)C(=O)N2 [10730/D11] | 9.7 | 2.0 | -0.7
Cc1c(Br)ccc2c1C(=Cc1ccc(-c3ccccc3Cl)o1)C(=O)N2 [10730/C07] | 37.4 | 20.3 | 1.0
CNS(=O)(=O)c1ccc2c(c1)C(=Cc1ccc(-c3ccccc3Cl)o1)C(=O)N2 [10730/D07] | 52.5 | 43.0 | 5.0
O=C1Nc2ccc(I)cc2C1=Cc1ccc(-c2ccccc2Cl)o1 [10730/B07] | 63.1 | 57.1 | 2.4
O=C1Nc2c(Br)cc(Br)cc2C1=Cc1cc2ccccc2nc1Cl [10730/A08] | 69.0 | 10.4 | -6.0
O=C1Nc2ccc(S(=O)(=O)Nc3ccc(C(F)(F)F)cc3)cc2C1=Cc1ccc(-c2ccccc2Cl)o1 [10730/E07] | 37.1 | 18.8 | 30.0
CNS(=O)(=O)c1ccc2c(c1)C(=Cc1cn(C(C)=O)c3ccccc13)C(=O)N2 [10730/D05] | 38.1 | 12.6 | -1.6
O=C1Nc2ccc(CCCl)cc2C1=Cc1ccc(N2CCCC2)cc1 [10729/G10] | 26.7 | 60.1 | -13.2

Structure (SMILES) | Met Kinase % Inhibition (MET) [%] | Biochem EGFR %Inhibition (EGFR) [%] | PDGF Kinase %Inhibition (PDGF-R) [%]
O=C1Nc2ccc(S(=O)(=O)Nc3ccc(C(F)(F)F)cc3)cc2C1=Cc1cccnc1 [10729/E08] | 73.7 | 40.1 | 11.0
COc1cc(C=C2C(=O)Nc3ccc(I)cc32)cc(OC)c1OC [10730/B04] | 73.2 | 36.5 | 7.2
O=C1Nc2ccc(S(=O)(=O)Nc3ccc(C(F)(F)F)cc3)cc2C1=Cc1coc2c(Br)cc(Br)cc2c1=O [10730/E09] | 33.9 | 21.7 | 20.3
O=C1Nc2ccc(S(=O)(=O)Nc3ccc(C(F)(F)F)cc3)cc2C1=CC1C=CCCC1 (stereo not drawn) [10729/E11] | 50.8 | 25.7 | 22.4
O=C1Nc2ccc(S(=O)(=O)Nc3ccc(C(F)(F)F)cc3)cc2C1=Cc1ccncc1 [10729/E09] | 85.0 | 29.6 | -11.7
COc1ccc2ccccc2c1C=C1C(=O)Nc2ccc(CCCl)cc21 [10729/G02] | 31.3 | -4.8 | 16.7
O=C1Nc2ccc(S(=O)(=O)N3CCOCC3)cc2C1=Cc1cc2ccccc2nc1Cl [10730/F08] | 46.4 | 0.8 | -0.3
CNS(=O)(=O)c1ccc2c(c1)C(=Cc1coc3ccc(Cl)cc3c1=O)C(=O)N2 [10730/D06] | 55.9 | 35.3 | -2.0
O=C1Nc2ccc(CCCl)cc2C1=Cc1ccncc1 [10729/G09] | 49.6 | 20.8 | 1.9
COc1cc(C=C2C(=O)Nc3ccc(S(=O)(=O)Nc4ccc(C(F)(F)F)cc4)cc32)cc(OC)c1OC [10730/E04] | 35.2 | 13.5 | 18.6
CC(=O)n1cc(C=C2C(=O)Nc3ccc(Br)c(C)c32)c2ccccc21 [10730/C05] | 46.1 | -9.8 | 8.5
COc1ccc(C=C2C(=O)Nc3ccc(S(=O)(=O)Nc4ccc(C(F)(F)F)cc4)cc32)c(OC)c1OC [10730/E02] | 18.8 | 17.7 | 16.4
O=C1Nc2ccc(S(=O)(=O)N3CCOCC3)cc2C1=Cc1ccc(-c2ccccc2Cl)o1 [10730/F07] | 60.7 | 27.3 | -2.0
Cc1cc(C=C2C(=O)Nc3ccc(S(=O)(=O)Nc4ccc(C(F)(F)F)cc4)cc32)oc1C [10730/E11] | 77.2 | 19.1 | 31.7
CNS(=O)(=O)c1ccc2c(c1)C(=Cc1cc(OC)c(OC)c(OC)c1)C(=O)N2 [10730/D04] | 33.6 | 10.4 | 20.8
O=C1Nc2c(Br)cc(Br)cc2C1=Cc1ccc(-c2ccccc2Cl)o1 [10730/A07] | 55.4 | 10.4 | -23.9
COc1ccc(C=C2C(=O)Nc3ccc(Br)c(C)c32)c(OC)c1OC [10730/C02] | 31.2 | 2.7 | 26.5
Cc1c(Br)ccc2c1C(=Cc1coc3ccc(Cl)cc3c1=O)C(=O)N2 [10730/C06] | 34.7 | 8.5 | 7.6
O=C1Nc2ccc(CCCl)cc2C1=Cc1cccnc1 [10729/G08] | 39.9 | 6.0 | 0.8
COc1cc(OC)c(OC)cc1C=C1C(=O)Nc2ccc(I)cc21 [10730/B03] | 78.3 | 46.8 | 17.3

Source: patent EP1247803A2, “Indolinone compounds suitable for modulation of protein kinases” (Sugen, Inc., priority 1996, dated 1998)
